Data: patent US9896441B2 (Lycera Corporation, priority 2014, dated 2018)
pEC50: −log10 of the molar value.

Experiments:
[1] = biological target: T1, Gal4-RORγ-LBD (Homo sapiens, UniProt P51449); experiment: Gal4-RORγ Luciferase Reporter Assay in HEK-293T Cells; format: cell-based; details: HEK-293 cells; for Gal4-RORγ Assay Max Response: maximum response
T1 construct: expressed in transfected cells
T1 sequence (P51449 269-508 limits assumed): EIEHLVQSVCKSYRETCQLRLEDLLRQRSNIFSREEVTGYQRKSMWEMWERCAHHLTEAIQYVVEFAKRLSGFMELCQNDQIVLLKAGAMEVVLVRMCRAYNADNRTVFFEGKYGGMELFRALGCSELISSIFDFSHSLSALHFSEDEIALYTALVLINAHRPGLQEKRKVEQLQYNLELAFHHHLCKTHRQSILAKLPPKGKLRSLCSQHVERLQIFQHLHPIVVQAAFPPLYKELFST
Outline: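 Max Response was taken as the upper plateau of a 4-parameter logistic fit of luciferase signal, normalized to 100 for wells without ursolic acid or compound. Transiently Gal4-RORγ-LBD/Gal4-luc transfected HEK-293 cells carrying […] ursolic acid were incubated with test compounds (0.2% DMSO) overnight at 37 °C and read with One-Glo.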

[2] = biological target: T2, RORγ-LBD (Homo sapiens, UniProt P51449); experiment: RORγ-Ligand Binding Domain (LBD) TR-FRET Assay; format: biochemical; details: for TR-FRET Assay Max Response: maximum response;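 as to TR-FRET Assay Max Response: 665/615 nm signal ratio set to 100 without ursolic acid or test compound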
T2 construct: made in house; host or cells: SF9 cells (baculovirus); used as diluted lysate
T2 sequence (P51449 269-508 limits assumed): T1 sequence (P51449 269-508 limits assumed)
Outline: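 TR-FRET read-out using a biotin-tagged SRC1 coactivator LXXLL peptide (200 nM final), with the antagonist ursolic acid present at 2 μM final. Receptor is His-tagged LBD expressed in SF9 cells, ~3 nM final in pH 7.0 Tris/KCl/EDTA/DTT/BSA buffer; compounds in 1% DMSO final.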

[3] = ursolic acid present, luciferase readout
[4] = with 2 μM ursolic acid (RORγ antagonist), highest test concentration 10 μM
[5] = luciferase reporter, in presence of ursolic acid
[6] = luciferase reporter, with ursolic acid

| SMILES | pEC50 [1, 3] | pEC50 [2, 4] | pEC50 [1, 5] | Gal4-RORγ Assay Max Response [1, 5] | pEC50 ([2]; RORγ-LBD TR-FRET assay) | TR-FRET Assay Max Response ([2]; RORγ-LBD TR-FRET assay) | pEC50 [1, 6] | pEC50 ([2]; RORγ-LBD TR-FRET) |
| --- | --- | --- | --- | --- | --- | --- | --- | --- |
| CC/C(=C\c1ccc2c(c1)N(S(=O)(=O)c1cccc(C(F)(F)F)c1)C[C@H](CCC(=O)OC)O2)C(C)C [Example 191H, methyl (S,E)-3-(6-(2-ethyl-3-methylbut-1-en-1-yl)-4-((3-(trifluoromethyl)phenyl)sulfonyl)-3,4-dihydro-2H-benzo[b][1,4]-oxazin-2-yl)propanoate] | > 6.30 | > 6.30 |  |  |  |  |  |  |
| O=S(=O)(c1cccc(C(F)(F)F)c1)N1C[C@H](CO)Oc2ccc(Oc3ccccc3Cl)cc21 [Example 131, (R)-(6-(2-Chlorophenoxy)-4-((3-(trifluoromethyl)phenyl)sulfonyl)-3,4-dihydro-2H-benzo[b][1,4]oxazin-2-yl)methanol] |  |  | > 6.30 | ** (a value in the range of greater than 90 to 150) | > 6.30 | *** (a value in the range of greater than 150 to 200) |  |  |
| CCOc1nn(CC)cc1S(=O)(=O)N1C[C@H](CCC(=O)O)Oc2ccc(/C=C/c3c(Cl)cccc3C(F)F)cc21 [Example 89EH, (S,E)-3-(6-(2-chloro-6-(difluoromethyl)styryl)-4-((3-ethoxy-1-ethyl-1H-pyrazol-4-yl)sulfonyl)-3,4-dihydro-2H-benzo[b][1,4]oxazin-2-yl)propanoic acid] |  |  |  |  |  |  | > 6.30 | > 6.30 |
| CC(O[C@@H]1Cc2ccc(OCc3c(F)cccc3Cl)cc2N(S(=O)(=O)c2cccc(C(F)(F)F)c2)C1)C(=O)O (stereo partly drawn) [Example 173C, 2-(((R)-7-((2-chloro-6-fluorobenzyl)oxy)-1-((3-(trifluoromethyl)phenyl)sulfonyl)-1,2,3,4-tetrahydroquinolin-3-yl)oxy)propanoic acid] |  |  | > 6.30 | ** (a value in the range of greater than 90 to 150) | > 6.30 | ** (a value in the range of greater than 90 to 150) |  |  |
| N#Cc1ccccc1/C=C/c1ccc2c(c1)N(S(=O)(=O)c1cccc(OC(F)F)c1)C[C@H](CCC(=O)O)O2 [Example 89AQ, (S,E)-3-(6-(2-cyanostyryl)-4-((3-(difluoromethoxy)phenyl)sulfonyl)-3,4-dihydro-2H-benzo[b][1,4]oxazin-2-yl)propanoic acid] |  |  |  |  |  |  | 5.30 to 6.30 | > 6.30 |
| O=C(O)CO[C@@H]1Cc2ccc(OCc3c(F)cccc3Cl)cc2N(S(=O)(=O)c2cccc(C(F)(F)F)c2)C1 [Example 157, (R)-2-((7-((2-Chloro-6-fluorobenzyl)oxy)-1-((3-(trifluoromethyl)phenyl)sulfonyl)-1,2,3,4-tetrahydroquinolin-3-yl)oxy)acetic acid] |  |  | 5.30 to 6.30 | ** (a value in the range of greater than 90 to 150) | > 6.30 | ** (a value in the range of greater than 90 to 150) |  |  |
| C/C(=C\c1ccc2c(c1)C(S(=O)(=O)c1cccc(C(F)(F)F)c1)CC(CNC(=O)C1CC1)O2)c1c(F)cccc1Cl (centres unmarked) [Example 183, (E)-N-((6-(2-(2-Chloro-6-fluorophenyl)prop-1-en-1-yl)-4-((3-(trifluoromethyl)phenyl)sulfonyl)chroman-2-yl)methyl)cyclopropanecarboxamide] |  |  | 5.30 to 6.30 | ** (a value in the range of greater than 90 to 150) | > 6.30 | *** (a value in the range of greater than 150 to 200) |  |  |
| C/C(=C\c1ccc2c(c1)N(S(=O)(=O)c1ccc(C)c(C(F)(F)F)c1)C[C@H](CCC(=O)O)O2)c1c(F)cccc1Cl [Example 86AO, (S,E)-3-(6-(2-(2-chloro-6-fluorophenyl)prop-1-en-1-yl)-4-((4-methyl-3-(trifluoromethyl)-phenyl)sulfonyl)-3,4-dihydro-2H-benzo[b][1,4]oxazin-2-yl)propanoic acid] |  |  |  |  |  |  | > 6.30 | > 6.30 |
| COC(=O)CC[C@H]1CN(S(=O)(=O)c2cc(C(F)(F)F)cnc2OCCO)c2cc(/C=C/c3c(F)cccc3Cl)ccc2O1 [Example 89EB, methyl (S,E)-3-(6-(2-chloro-6-fluorostyryl)-4-((2-(2-hydroxyethoxy)-5-(trifluoromethyl)-pyridin-3-yl)sulfonyl)-3,4-dihydro-2H-benzo[b][1,4]oxazin-2-yl)propanoate] |  |  |  |  |  |  | > 6.30 | > 6.30 |
| CCOC(=O)C(C)(C)CC1CC(S(=O)(=O)c2ccc(F)c(OC)c2)c2cc(/C=C(\C)c3c(F)cccc3Cl)ccc2O1 (centres unmarked) [Example 186J, ethyl (E)-3-(6-(2-(2-chloro-6-fluorophenyl)prop-1-en-1-yl)-4-44-fluoro-3-methoxyphenyl)-sulfonyl)chroman-2-yl)-2,2-dimethylpropanoate] |  |  | 5.30 to 6.30 | ** (a value in the range of greater than 90 to 150) | > 6.30 | ** (a value in the range of greater than 90 to 150) |  |  |
| C/C(=C\c1ccc2c(c1)N(S(=O)(=O)c1cccc(C(F)(F)F)c1)C[C@@H](NS(C)(=O)=O)C2)c1c(F)cccc1Cl [Example 116I, (S,E)-N-(7-(2-(2-chloro-6-fluorophenyl)prop-1-en-1-yl)-1-((3-(trifluoromethyl)phenyl)-sulfonyl)-1,2,3,4-tetrahydroquinolin-3-yl)methanesulfonamide] |  |  | 5.30 to 6.30 | ** (a value in the range of greater than 90 to 150) | > 6.30 | *** (a value in the range of greater than 150 to 200) |  |  |
| C/C(=C\c1ccc2c(c1)N(S(=O)(=O)c1cccc(C(F)(F)F)c1)C[C@H](CCC(=O)N1CCNCC1)O2)c1c(F)cccc1Cl [Example 127F, (S,E)-3-(6-(2-(2-chloro-6-fluorophenyl)prop-1-en-1-yl)-4-((3-(trifluoromethyl)phenyl)sulfonyl)-3,4-dihydro-2H-benzo[b][1,4]oxazin-2-yl)-1-(piperazin-1-yl)propan-1-one] |  |  | 5.30 to 6.30 | ** (a value in the range of greater than 90 to 150) | > 6.30 | **** (a value greater than 200) |  |  |
| CCOc1nn(CC)cc1S(=O)(=O)N1C[C@H](CCC(=O)O)Oc2ccc(/C=C/c3c(F)cccc3F)cc21 [Example 89AE, (S,E)-3-(6-(2,6-difluorostyryl)-4-((3-ethoxy-1-ethyl-1H-pyrazol-4-yl)sulfonyl)-3,4-dihydro-2H-benzo[b][1,4]-oxazin-2-yl)propanoic acid] |  |  |  |  |  |  | 5.30 to 6.30 | > 6.30 |
| C/C(=C\c1ccc2c(c1)C(S(=O)(=O)c1cccc(C(F)(F)F)c1)CC(CC(C)(C)C(=O)O)O2)c1c(F)cccc1Cl (centres unmarked) [Example 186N, (E)-3-(6-(2-(2-chloro-6-fluorophenyl)prop-1-en-1-yl)-4-((3-(trifluoromethyl)phenyl)-sulfonyl)chroman-2-yl)-2,2-dimethylpropanoic acid] |  |  | > 6.30 | ** (a value in the range of greater than 90 to 150) | > 6.30 | *** (a value in the range of greater than 150 to 200) |  |  |
| C/C(=C\c1ccc2c(c1)N(S(=O)(=O)c1cccc(C(F)(F)F)c1)C[C@H](CCN1CCC(C(=O)O)CC1)O2)c1c(F)cccc1Cl [Example 122, (S,E)-1-(2-(6-(2-(2-Chloro-6-fluorophenyl)prop-1-en-1-yl)-4-((3-(trifluoromethyl)phenyl)sulfonyl)-3,4-dihydro-2H-benzo[b][1,4]oxazin-2-yl)ethyl)piperidine-4-carboxylic acid] |  |  | > 6.30 | ** (a value in the range of greater than 90 to 150) | > 6.30 | *** (a value in the range of greater than 150 to 200) |  |  |
| COC(=O)CCC1CC(S(=O)(=O)c2ccc(F)c(OC)c2)c2cc(OCc3c(F)cccc3Cl)ccc2O1 (centres unmarked) [Example 178, Methyl 3-(6-((2-chloro-6-fluorobenzyl)oxy)-4-((4-fluoro-3-methoxyphenyl)sulfonyl)chroman-2-yl)propanoate] |  |  | 5.30 to 6.30 | ** (a value in the range of greater than 90 to 150) | > 6.30 | ** (a value in the range of greater than 90 to 150) |  |  |
| O=C(O)CCC[C@H]1CN(S(=O)(=O)c2cccc(C(F)(F)F)c2)c2cc(/C=C/c3c(F)cccc3Cl)ccc2O1 [Example 195D, (S,E)-4-(6-(2-chloro-6-fluorostyryl)-4-((3-(trifluoro-methyl)phenyl)sulfonyl)-3,4-dihydro-2H-benzo[b][1,4]oxazin-2-yl)butanoic acid] | > 6.30 | > 6.30 |  |  |  |  |  |  |
| CCOc1ncc(C(F)(F)F)cc1S(=O)(=O)N1C[C@H](CCC(=O)OC)Oc2ccc(/C=C/c3c(Cl)cccc3OC)cc21 [Example 89FB, methyl (S,E)-3-(6-(2-chloro-6-methoxystyryl)-4-((2-ethoxy-5-(trifluoromethyl)pyridin-3-yl)sulfonyl)-3,4-dihydro-2H-benzo[b][1,4]oxazin-2-yl)propanoate] |  |  |  |  |  |  | 5.30 to 6.30 | > 6.30 |
